Values quoted from earlier work as cited in patent US10414795B2, “Techniques of preparing collagen active peptides” (Technical Institute of Physics and Chemistry, Chinese …, priority 2016, dated 2019).

Tested on: human breast cancer cell line MCF-7
Details: read-out: IC50, dose-dependent inhibition effect

Row | IC50 [µM] | Sequence
1 | 8.1 | LPHVLTPEAGAT [Leu-Pro-His-Val-Leu-Thr-Pro-Glu-Ala-Gly-Ala-Thr, anticancer peptide (1206 Da) from tuna dark muscle byproduct hydrolysate]
2 | 8.8 | PTAEGVYMVT [Pro-Thr-Ala-Glu-Gly-Val-Tyr-Met-Val-Thr, anticancer peptide (1124 Da) from tuna dark muscle byproduct hydrolysate]
